Experimental data as given in US5157032A, “Mixed ligand complexes and uses thereof as binding agents and probes to DNA” (The Trustees of Columbia University In The City of New York, priority 1990, dated 1992).
“Also recorded” adds a separate entry of the source.

Assays:
[1] = system: distamycin binding sites on end-labeled DNA fragment; test: Footprinting of distamycin
[2] = system: EcoRI site on end-labeled DNA fragment; test: Footprinting of EcoRI; type: binding; settings: in words
[3] = system: distamycin binding sites on end-labeled DNA fragment; settings: cited from earlier work
[4] = system: DNA; test: Luminescence in presence of DNA (preliminary); type: binding; settings: in words
Excerpt: Ru(phen)2 (dppz)^2+, and Ru(dip)2 (dppz)^2+ seem have similar behavior as described above. […] We are presently tethering this complexes, Ru(bpy)2 (dppz)^2+, Ru(dppz)2 phen^2+, and Ru(phen)2 (dppz)^2+ to oligonucleotides to develop non-radioactive luminescent DNA probes for both heterogeneous and homogeneous assay systems. The probes, constructed in this way should luminesce only upon finding its target sequence.

[5] = system: calf thymus DNA; test: Equilibrium dialysis of racemic complexes against calf thymus DNA (Scatchard, dialysate CD); type: binding; settings: in words
Procedure: Equilibrium Dialysis: Equlibrium dialysis of the reacemic metal complexes was perforemd against calf-thymus DNA using procedures described previously. (74) The buffer used was 5 mM Tris, 50 mM NaCl at pH 7.5. Samples were agitated on a shaker bath during equilibration which occurred after three to five days, as determined by control samples containing no DNA. After equilibration, volumes of liquid inside and outside the dialysis bags were determined (approximately 1 and 3 mls, respectively) and circular dichroism of the dialysate was meaxured on a Jasco J-40 spectropolarimeter. Final ruthenium concentration inside and outside the bags were measured by visible absorbance. Data anaylsis was performed on a VAX-780 using non-linear least squares analysis.
Equilibrium Dialysis: Equilibrium binding constants for the metal complexes with DNA may be determined classically by equilibrium dialysis. Calf thymus DNA was dialyzed against the series of mixed ligand complexes using a broad range of ruthenium concentrations. […] The results have been plotted according to Scatchard (88), where r is the ratio of bound metal to DNA-phosphate concentration, and cf is the concentration of free metal complex. The data were fit by non-linear least squares analysis to the McGhee and von Hippel equation (8945) governing random non-cooperative binding to a lattice,
where r is the ratio of bound concentration of ruthenium to the concentration of DNA-phosphate, cf is the concentration of ruthenium free in soltuion, Kb the intrinsic binding constant, and the integer /, which measures the degree of anti-cooperativeity, is the size of a binding site in base pairs. The curves shown reflect the best fit after variation of two parameters: the intrinsic binding constant, Kb, and binding stie size, /. For those complexes were cooperatively was observed, the equation (89) incorporating a cooperativity parameter was used.
Equilibrium dialysis experiments additionally offer the opportunity to examine any enantiomeric selectivities associated with binding. After dialysis of the DNA against the racemic mixture, optical activity observed in the dialysate refelects an enrichment in the dialysate in the less favored enantiomer. For most of the complexes, optical activity was found in the dialysate. Values for the extent of enantiomeric selectivity could not be quanitated in the absence of determinations of DE and assignments of absolute configuration. Assuming that the signs of the circular chroism in the ultraviolet ligand bands are the same for the these ligands as that for the parent phenanthroline complex, (90) we have assigned the absolute configuration of these complexes by comparison to spectra for enantiomers of Ru(phen)3^2+ and have compared levels of enantioselectivity qualitatively through measurements of circular dichroic intensity per rutheium bound. Based upon these assumptions, we find enantionmeric selectivities for the polyridyl complexes to reflect an enrichment in the isomer in the dialysate and the preferential binding of the isomer to the right-handed DNA. This observation is consistent with the preferential intercalation of isomers found earlier for Ru(phen)3^2+ in right-handed B-DNA. (63) We may also compare relative enantioselectivities for different ancillary ligands. […] The same comparison may be seen qualitatively between Ru(phen)2 DIP^2+ and Ru(bpy)2 DIP^2+.

[6] = Stability / handling; type: physicochemical; settings: in words
[7] = system: electrophoresed DNA in agarose gel; test: Staining of DNA in agarose gels; settings: in words
Excerpt: One interesting application is the binding of this complex to DNA that has been electrophoresed in a agarose gel.

[8] = system: pBR322 DNA; settings: reference intercalator; cited from earlier work
[9] = system: EcoRI site on end-labeled DNA fragment; settings: cited from earlier work

[Cu+].c1cnc2c(c1)ccc1cccnc12.c1cnc2c(c1)ccc1cccnc12 [Cu(phen)2 +]
footprint quality, distamycin ([1]; in words): lacks the necessary sequence neutrality | footprint quality, EcoRI [2]: failed to footprint the protein | 3'-shift of distamycin footprint ([3]; comparison reagents): 2-3 pair

[Ru+2].c1ccc(-c2ccnc3c2ccc2c(-c4ccccc4)ccnc23)cc1.c1ccc(-c2ccnc3c2ccc2c(-c4ccccc4)ccnc23)cc1.c1ccc2nc3c4cccnc4c4ncccc4c3nc2c1 [Ru(dip)2 (dppz)^2+]
luminescence dependence on DNA [4]: luminesce only in the presence of DNA but not in the presence of H2 O (or Buffer) alone

[Ru+2].c1ccc2nc3c4cccnc4c4ncccc4c3nc2c1.c1cnc2c(c1)ccc1cccnc12.c1cnc2c(c1)ccc1cccnc12 [Ru(phen)2 (dppz)^2+]
luminescence dependence on DNA [4]: luminesce only in the presence of DNA but not in the presence of H2 O (or Buffer) alone

N=C1C(=N)c2ccccc2-c2ccccc21.N=C1C(=N)c2ccccc2-c2ccccc21.N=C1C(=N)c2ccccc2-c2ccccc21.[Ru+2] [Ru(phi)3^2+]
aggregation in solution [5]: extensive aggregation | stability [6]: does not decompose upon exposure to air or by continuous irradiation with visible light

Cn1cc(NC(=O)c2cc(NC(=O)c3cc(NC=O)cn3C)cn2C)cc1C(=O)NCCC(=N)N [distamycin]
distamycin binding sites footprinted ([1]; by Rh(phi)2 (bpy)^3+, 5'-end-labeled fragment): strong A6 binding site (41-47 bp); also recorded: AATT (67-70, 119-12), TAAT (73-76), AAATT (101-105), and TTAT (107-110) | binding site size by crystal structure ([3]; cited crystallography): six

CC[n+]1c(-c2ccccc2)c2cc(N)ccc2c2ccc(N)cc21 [ethidium, reference compound]
staining of DNA in agarose gels [7]: found to stain DNA imbedded in the agarose gels | Unwinding Angle [8]: 26 °

EcoRI: restriction endonuclease EcoRI
crystal binding site size ([9]; cited crystallography): ten | DNA contact length of EcoRI ([9]; x-ray co-crystal): 10 base pairs
